{
  "source": "patent US6521669B1",
  "about": "“Hydroxystilbene compounds for reducing/inhibiting protein glycation” (Societe L'Oreal S.A., priority 1999, dated 2003)",
  "key": {"[1]": {"tested_on": "human hair proteins (keratins)", "test": "Glycation of isolated human hair proteins (keratins) with ribose, glycation index (Experiment 2)", "assay_type": "biochemical", "conditions": "50 mM ribose, 50° C., 14 days", "experimental": "The glycation reaction was modelled in vitro in a biochemical model using human hair proteins (keratins) as a support for glycation with ribose. The test system consisted of isolated hair, incubated in a phosphate buffer (0.2M, pH=7.4) containing 50 mM of ribose (origin: Sigma). […] The assembly was incubated at 50° C. in the absence of light and air for 14 days. Control samples, incubated in the presence and absence of ribose, were tested in parallel. After incubation for 14 days, the incubation media were removed and the hair was washed with a solution containing 10 μM of guanidium chloride and then in water of MilliQ grade in order to remove all trace of free ribose. The hair was then placed in a solution containing 50% (v/v) of ethanol and 50 mM of DTT for 15 minutes at 37° C. After washing, the samples were placed in a solution containing 10 mM of 5,5′-dithiobis-2-nitrobenzoic acid. The absorbance relating to the free […] residues was measured at 415 nm. The samples were then washed in a 50% (v/v) ethanol solution and then heated for 30 minutes at 100° C. in a 2M hydrazine monohydrate solution (pH 9.4). After addition of a 1 mg/ml solution of phenylhydrazine in a 40% (v/v) acetic acid solution, the samples were incubated for [lacuna] 60° C. and the absorbance relating to the glycated proteins was measured at 390 nm. For each sample, the glycation index was evaluated by the ratio between the absorbance at 390 nm and the absorbance at 415 nm. [formula] The groups of data (control group and treated groups) were processed by means of a variance analysis (ANOVA), followed by a Dunett test."}, "bovine serum albumin": {"molecular_target": "bovine serum albumin (Bos taurus, UniProt P02769)", "sequence (P02769 25-607)": "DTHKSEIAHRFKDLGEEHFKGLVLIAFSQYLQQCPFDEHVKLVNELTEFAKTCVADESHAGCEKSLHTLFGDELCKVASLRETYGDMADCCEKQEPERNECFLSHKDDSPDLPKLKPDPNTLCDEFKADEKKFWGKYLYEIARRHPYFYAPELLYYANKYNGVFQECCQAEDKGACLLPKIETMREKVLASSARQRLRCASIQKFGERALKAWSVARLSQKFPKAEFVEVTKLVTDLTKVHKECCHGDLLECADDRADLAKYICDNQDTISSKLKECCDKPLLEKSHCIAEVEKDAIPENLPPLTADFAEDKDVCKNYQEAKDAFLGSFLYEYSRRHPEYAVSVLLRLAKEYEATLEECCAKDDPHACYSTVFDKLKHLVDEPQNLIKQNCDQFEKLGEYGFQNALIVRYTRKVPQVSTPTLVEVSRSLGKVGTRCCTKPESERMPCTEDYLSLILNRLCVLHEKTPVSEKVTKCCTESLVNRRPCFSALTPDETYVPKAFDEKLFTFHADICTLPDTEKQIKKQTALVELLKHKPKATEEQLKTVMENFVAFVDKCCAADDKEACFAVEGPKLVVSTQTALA", "test": "Glycation of bovine serum albumin with D-ribose, AGE fluorescence (Experiment 1)", "assay_type": "biochemical", "experimental": "The glycation was evaluated by measuring the fluorescence of the AGEs at λem.=440 nm emitted by each sample after excitation at λex.=370 nm. The inhibition of glycation was visualized by the decrease in fluorescence compared with the sample treated with sugar alone."}},
  "data": [
    {"smiles": "Oc1ccc(C=Cc2cc(O)cc(O)c2)cc1", "note": "[resveratrol, 3,5,4′-trihydroxystilbene]", "values": [
      {"measurement": "% Inhibition", "setting": "[1]; resveratrol 10^−4 M", "value": 80, "unit": "%"},
      {"measurement": "% Inhibition", "setting": "[1]; resveratrol 10^−5 M", "value": 51, "unit": "%"},
      {"measurement": "% Inhibition", "setting": "[1]; resveratrol 10^−6 M", "value": 59, "unit": "%"},
      {"measurement": "% Inhibition", "setting": "[1]; resveratrol 10^−7 M", "value": 45, "unit": "%"},
      {"measurement": "inhibition at 1 µM", "setting": "bovine serum albumin", "value": 17, "unit": "%"},
      {"measurement": "inhibition at 10 µM", "setting": "bovine serum albumin", "value": 29.8, "unit": "%"}
    ]}
  ]
}
